Test results from PMC6447767, “Simultaneous determination of the potent anti-tuberculosis regimen—Pyrazinamide, ethambutol, protionamide, clofazimine in beagle dog plasma using LC–MS/MS method coupled with 96-well format plate” (Journal of Pharmaceutical and Biomedical Analysis, 2019).
Like-named read-outs stand apart in the source and are kept apart here.

What was measured:
[1] = beagle, dog
[2] = Pharmacokinetic study of the PZA-EMB-PTO-CFZ combination after oral administration; conditions: beagle, dog, plasma, in combination; for AUC: AUC0-τ, 0 to 24/48 h; for AUC / AUC(0-inf) / Cmax / half-life: n = 6; for AUC(0-inf): AUC0-∞; for Tmax: n = 6, mean ± S.D.
[3] = Stability of analytes in Beagle dog plasma (freeze-thaw, long-term, auto-sampler, bench-top); conditions: for %Stability recoveries (Mean ± SD), Freeze-thaw (−80 °C) / %Stability recoveries (Mean ± SD), Bench-top 4 h (4 °C) / %Stability recoveries (Mean ± SD), Long-term 40 days (−80 °C) / Stability accuracy under the test conditions: Beagle dog plasma; for %Stability recoveries (Mean ± SD), Freeze-thaw (−80 °C): 3 freeze-thaw cycles; for %Stability recoveries (Mean ± SD), Freeze-thaw (−80 °C) / %Stability recoveries (Mean ± SD), Bench-top 4 h (4 °C) / %Stability recoveries (Mean ± SD), Long-term 40 days (−80 °C) / %Stability recoveries (Mean ± SD), Auto-sampler 27 h (18 °C): n = 3; for %Stability recoveries (Mean ± SD), Auto-sampler 27 h (18 °C): processed Beagle dog plasma samples; for Stability accuracy under the test conditions: summary over all stability conditions and QC levels
[4] = in vivo; conditions: beagle, dog, po
[5] = Solubility in organic solvents noted during sample preparation
[6] = High Dose (double of standard dose)
[7] = Low Dose (half of standard dose)
[8] = T1/2, High Dose (double of standard dose)
[9] = T1/2, Low Dose (half of standard dose)
[10] = T1/2, Medium Dose (standard dose)
[11] = Medium Dose (standard: PZA 93.2, EMB 20.7, PTO 15.5, CFZ 5.2 mg/kg)

SMILES	AUC [2, 6]	AUC [2, 7]	AUC ([2]; Medium Dose (standard dose))	AUC(0-inf) [2, 6]	AUC(0-inf) [2, 7]	AUC(0-inf) ([2]; Medium Dose (standard dose))	Cmax [2, 6]	Cmax [2, 7]	Cmax ([2]; Medium Dose (standard dose))	half-life [2, 8]	half-life [2, 9]	half-life [2, 10]	%Stability recoveries (Mean ± SD), Freeze-thaw (−80 °C) ([3]; HQC)	%Stability recoveries (Mean ± SD), Bench-top 4 h (4 °C) ([3]; HQC)	%Stability recoveries (Mean ± SD), Long-term 40 days (−80 °C) ([3]; HQC)	%Stability recoveries (Mean ± SD), Auto-sampler 27 h (18 °C) ([3]; HQC)	%Stability recoveries (Mean ± SD), Freeze-thaw (−80 °C) ([3]; LQC)	%Stability recoveries (Mean ± SD), Bench-top 4 h (4 °C) ([3]; LQC)	%Stability recoveries (Mean ± SD), Long-term 40 days (−80 °C) ([3]; LQC)	%Stability recoveries (Mean ± SD), Auto-sampler 27 h (18 °C) ([3]; LQC)	other results
CCCc1cc(C(N)=S)ccn1 [PTO, protionamide]																					Stability accuracy under the test conditions [1]: 86.6–113.2%
NC(=O)c1cnccn1 [PZA, pyrazinamide]	1970 ± 298 µg·h/mL	50.2 ± 7.6 µg·h/mL	1080 ± 187 µg·h/mL	1970 ± 298 µg·h/mL	50.2 ± 7.6 µg·h/mL	1080 ± 188 µg·h/mL	241000 ± 19200 ng/mL	57000 ± 11900 ng/mL	125000 ± 6700 ng/mL	2.62 ± 0.1 h	2.82 ± 0.08 h	2.7 ± 0.21 h	98.6 ± 0.7%	95.4 ± 2.5%	88.6 ± 0.9%	102.5 ± 3.3%	106.3 ± 3.0%	95.2 ± 3.4%	97.9 ± 2.0%	101.1 ± 1.6%	Tmax [2, 6]: 1.33 ± 0.26 h; Tmax [2, 7]: 1.13 ± 0.54 h; Tmax [2, 11]: 1.04 ± 0.6 h; Stability accuracy under the test conditions [3]: 86.6–113.2%
CC(C)/N=c1\cc2n(-c3ccc(Cl)cc3)c3ccccc3nc-2cc1Nc1ccc(Cl)cc1 [CFZ, clofazimine]	0.143 ± 0.0371 µg·h/mL	0.0175 ± 0.00967 µg·h/mL	0.0422 ± 0.0177 µg·h/mL	0.147 ± 0.0374 µg·h/mL	0.0238 ± 0.0118 µg·h/mL	0.0531 ± 0.0221 µg·h/mL	21.6 ± 7.32 ng/mL	3.69 ± 1.32 ng/mL	7.24 ± 2.58 ng/mL	3.63 ± 1.49 h	3.41 ± 1.31 h	4.03 ± 1.16 h	102.8 ± 2.3%	96.1 ± 2.0%	98.5 ± 2.3%	103.3 ± 1.3%	113.2 ± 3.8%	92.5 ± 4.6%	91.3 ± 1.0%	95.3 ± 8.6%	Tmax [4]: 3.17 ± 0.98 h; Stability accuracy under the test conditions [3]: 86.6–113.2%
CC[C@@H](CO)NCCN[C@@H](CC)CO [EMB, ethambutol]	58.7 ± 14.8 µg·h/mL	7.88 ± 1.22 µg·h/mL	18.5 ± 2.35 µg·h/mL	59.2 ± 15 µg·h/mL	7.98 ± 1.23 µg·h/mL	18.7 ± 2.34 µg·h/mL	21100 ± 4230 ng/mL	2930 ± 890 ng/mL	8720 ± 1150 ng/mL	12 ± 0.62 h	11.8 ± 1.31 h	12.7 ± 1.88 h	98.0 ± 2.6%	86.6 ± 0.9%	101.8 ± 0.9%	94.0 ± 5.0%	106.6 ± 6.2%	100.5 ± 4.8%	109.3 ± 4.7%	103.2 ± 3.6%	Tmax [2, 6]: 0.92 ± 0.38 h; Tmax [2, 7]: 1.25 ± 0.94 h; Tmax [2, 11]: 0.83 ± 0.2 h; Solubility in acetonitrile [5]: poor solubility; Stability accuracy under the test conditions [3]: 86.6–113.2%
